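96-well plates; 48 h exposure; 5 concentrations. Endpoints by linear interpolation between flanking doses. Not reached: highest tested concentration assigned. The concentration for full growth arrest is given as TGI.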
What was measured:
Assay in all cases: inhibition of tumour cell growth, NCI panel, 48 h
SN12C renal = test system: SN12C renal
CAKI-1 renal = test system: CAKI-1 renal
OVCAR-4 ovarian = test system: OVCAR-4 ovarian
SF-295 CNS = test system: SF-295 CNS
HOP-62 NSCLC = test system: HOP-62 NSCLC
HOP-18 NSCLC = test system: HOP-18 NSCLC
UO-31 renal = test system: UO-31 renal
XF 498 CNS = test system: XF 498 CNS
SNB-78 CNS = test system: SNB-78 CNS
RXF-631 renal = test system: RXF-631 renal
SK-MEL-5 melanoma = test system: SK-MEL-5 melanoma
OVCAR-3 ovarian = test system: OVCAR-3 ovarian
LXFL 529 NSCLC = test system: LXFL 529 NSCLC
SK-MEL-2 melanoma = test system: SK-MEL-2 melanoma
LOX IMVI melanoma = test system: LOX IMVI melanoma
SNB-19 CNS = test system: SNB-19 CNS
UACC-62 melanoma = test system: UACC-62 melanoma
SK-OV-3 ovarian = test system: SK-OV-3 ovarian
U251 CNS = test system: U251 CNS
SF-539 CNS = test system: SF-539 CNS
DMS 273 small cell lung = test system: DMS 273 small cell lung
NCI-H460 lung = test system: NCI-H460 lung
RXF 393 renal = test system: RXF 393 renal
HCC-2998 colon = test system: HCC-2998 colon
MALME-3M melanoma = test system: MALME-3M melanoma
A549 NSCLC = test system: A549 NSCLC
MOLT-4 leukemia = test system: MOLT-4 leukemia
ACHN renal = test system: ACHN renal
OVCAR-8 ovarian = test system: OVCAR-8 ovarian
786-0 renal = test system: 786-0 renal
SNB-75 CNS = test system: SNB-75 CNS
SF-268 CNS = test system: SF-268 CNS
NCI-H226 lung = test system: NCI-H226 lung
RPMI-8226 leukemia = test system: RPMI-8226 leukemia
A498 renal = test system: A498 renal
CCRF-CEM leukemia = test system: CCRF-CEM leukemia
NCI-H23 lung = test system: NCI-H23 lung
NCI-H522 lung = test system: NCI-H522 lung
KM12 colon = test system: KM12 colon
EKVX NSCLC = test system: EKVX NSCLC
TK-10 renal = test system: TK-10 renal
M19-MEL melanoma = test system: M19-MEL melanoma
M14 melanoma = test system: M14 melanoma
SW-620 colon = test system: SW-620 colon
DLD-1 colon = test system: DLD-1 colon
UACC-257 melanoma = test system: UACC-257 melanoma
HCT-116 colon = test system: HCT-116 colon
HCT-15 colon = test system: HCT-15 colon
IGROV1 ovarian = test system: IGROV1 ovarian
COLO 205 colon = test system: COLO 205 colon
KM20L2 colon = test system: KM20L2 colon
HL-60(TB) leukemia = test system: HL-60(TB) leukemia
K-562 leukemia = test system: K-562 leukemia
HT29 colon = test system: HT29 colon
OVCAR-5 ovarian = test system: OVCAR-5 ovarian
DMS 114 small cell lung = test system: DMS 114 small cell lung
SR leukemia = test system: SR leukemia
SK-MEL-28 melanoma = test system: SK-MEL-28 melanoma
HOP-92 NSCLC = test system: HOP-92 NSCLC

Measured: TGI

COC(=O)C1=C(CO)C2C=CC1C2 (stereo unspecified)
> 100 µM: SN12C renal | CAKI-1 renal | OVCAR-4 ovarian | SF-295 CNS | HOP-62 NSCLC | HOP-18 NSCLC | UO-31 renal | XF 498 CNS | SNB-78 CNS | RXF-631 renal | SK-MEL-5 melanoma | OVCAR-3 ovarian | LXFL 529 NSCLC | SK-MEL-2 melanoma | LOX IMVI melanoma | SNB-19 CNS | UACC-62 melanoma | SK-OV-3 ovarian | U251 CNS | SF-539 CNS | DMS 273 small cell lung | NCI-H460 lung | RXF 393 renal | HCC-2998 colon | MALME-3M melanoma | A549 NSCLC | MOLT-4 leukemia | ACHN renal | OVCAR-8 ovarian | 786-0 renal | SNB-75 CNS | SF-268 CNS | NCI-H226 lung | RPMI-8226 leukemia | A498 renal | CCRF-CEM leukemia | NCI-H23 lung | NCI-H522 lung | KM12 colon | EKVX NSCLC | TK-10 renal | M19-MEL melanoma | M14 melanoma | SW-620 colon | DLD-1 colon | UACC-257 melanoma | HCT-116 colon | HCT-15 colon | IGROV1 ovarian | COLO 205 colon | KM20L2 colon | HL-60(TB) leukemia | K-562 leukemia | HT29 colon | OVCAR-5 ovarian

c1ccc(CN(Cn2cccn2)Cn2cccn2)nc1
> 100 µM: SN12C renal | CAKI-1 renal | OVCAR-4 ovarian | SF-295 CNS | HOP-62 NSCLC | DMS 114 small cell lung | UO-31 renal | XF 498 CNS | SNB-78 CNS | RXF-631 renal | SK-MEL-5 melanoma | OVCAR-3 ovarian | LXFL 529 NSCLC | SK-MEL-2 melanoma | LOX IMVI melanoma | SNB-19 CNS | UACC-62 melanoma | SK-OV-3 ovarian | U251 CNS | SR leukemia | DMS 273 small cell lung | NCI-H460 lung | RXF 393 renal | A549 NSCLC | SK-MEL-28 melanoma | MOLT-4 leukemia | ACHN renal | OVCAR-8 ovarian | 786-0 renal | SNB-75 CNS | SF-268 CNS | A498 renal | CCRF-CEM leukemia | NCI-H23 lung | NCI-H522 lung | KM12 colon | EKVX NSCLC | TK-10 renal | M19-MEL melanoma | M14 melanoma | SW-620 colon | DLD-1 colon | UACC-257 melanoma | HCT-116 colon | HCT-15 colon | HOP-92 NSCLC | COLO 205 colon | KM20L2 colon | HL-60(TB) leukemia | K-562 leukemia
78.8 µM: RPMI-8226 leukemia

Nc1c(-c2ccc(Cl)cc2Cl)[n+]([O-])c2ccccc2[n+]1[O-]
> 100 µM: SN12C renal | CAKI-1 renal | OVCAR-4 ovarian | SF-295 CNS | HOP-62 NSCLC | HOP-18 NSCLC | DMS 114 small cell lung | UO-31 renal | XF 498 CNS | SNB-78 CNS | RXF-631 renal | SK-MEL-5 melanoma | OVCAR-3 ovarian | LXFL 529 NSCLC | SK-MEL-2 melanoma | LOX IMVI melanoma | SNB-19 CNS | UACC-62 melanoma | SK-OV-3 ovarian | U251 CNS | SF-539 CNS | DMS 273 small cell lung | NCI-H460 lung | HCC-2998 colon | MALME-3M melanoma | A549 NSCLC | SK-MEL-28 melanoma | MOLT-4 leukemia | ACHN renal | OVCAR-8 ovarian | 786-0 renal | SNB-75 CNS | SF-268 CNS | NCI-H226 lung | RPMI-8226 leukemia | A498 renal | CCRF-CEM leukemia | NCI-H23 lung | NCI-H522 lung | KM12 colon | EKVX NSCLC | TK-10 renal | M19-MEL melanoma | M14 melanoma | SW-620 colon | DLD-1 colon | UACC-257 melanoma | HCT-15 colon | IGROV1 ovarian | COLO 205 colon | KM20L2 colon | HL-60(TB) leukemia | K-562 leukemia | HT29 colon | OVCAR-5 ovarian

CCOC(=O)/C(=C/c1ccc(C#N)cc1)N(CC)CC
> 100 µM: SN12C renal | CAKI-1 renal | OVCAR-4 ovarian | HOP-62 NSCLC | HOP-18 NSCLC | DMS 114 small cell lung | UO-31 renal | XF 498 CNS | SNB-78 CNS | RXF-631 renal | SK-MEL-5 melanoma | LXFL 529 NSCLC | SK-MEL-2 melanoma | LOX IMVI melanoma | UACC-62 melanoma | SK-OV-3 ovarian | U251 CNS | SR leukemia | SF-539 CNS | NCI-H460 lung | HCC-2998 colon | MALME-3M melanoma | A549 NSCLC | SK-MEL-28 melanoma | MOLT-4 leukemia | ACHN renal | OVCAR-8 ovarian | 786-0 renal | SNB-75 CNS | SF-268 CNS | NCI-H226 lung | RPMI-8226 leukemia | A498 renal | CCRF-CEM leukemia | NCI-H23 lung | NCI-H522 lung | KM12 colon | EKVX NSCLC | TK-10 renal | M19-MEL melanoma | M14 melanoma | SW-620 colon | DLD-1 colon | UACC-257 melanoma | HCT-116 colon | HCT-15 colon | HOP-92 NSCLC | IGROV1 ovarian | COLO 205 colon | HL-60(TB) leukemia | K-562 leukemia | HT29 colon | OVCAR-5 ovarian
30 µM: SF-295 CNS

Cc1ccccc1C(C#N)C(=O)C(=O)Nc1cccc(Cl)c1 (stereo unspecified)
31.6 µM: SW-620 colon
62.1 µM: RPMI-8226 leukemia
95.5 µM: M19-MEL melanoma
34.1 µM: LOX IMVI melanoma
> 100 µM: SN12C renal | CAKI-1 renal | SF-295 CNS | HOP-62 NSCLC | DMS 114 small cell lung | UO-31 renal | XF 498 CNS | SNB-78 CNS | RXF-631 renal | SK-MEL-5 melanoma | OVCAR-3 ovarian | SK-MEL-2 melanoma | SNB-19 CNS | UACC-62 melanoma | SK-OV-3 ovarian | U251 CNS | SF-539 CNS | DMS 273 small cell lung | NCI-H460 lung | RXF 393 renal | HCC-2998 colon | MALME-3M melanoma | A549 NSCLC | SK-MEL-28 melanoma | MOLT-4 leukemia | ACHN renal | OVCAR-8 ovarian | 786-0 renal | SNB-75 CNS | SF-268 CNS | NCI-H226 lung | A498 renal | CCRF-CEM leukemia | NCI-H23 lung | NCI-H522 lung | KM12 colon | EKVX NSCLC | TK-10 renal | M14 melanoma | DLD-1 colon | UACC-257 melanoma | HCT-116 colon | HCT-15 colon | HOP-92 NSCLC | IGROV1 ovarian | COLO 205 colon | KM20L2 colon | HL-60(TB) leukemia | K-562 leukemia | HT29 colon | OVCAR-5 ovarian

COc1ccc(/C=C2\CCC(C)(CN(C)C)C2=O)cc1 (stereo unspecified)
> 100 µM: SN12C renal | CAKI-1 renal | OVCAR-4 ovarian | SF-295 CNS | HOP-62 NSCLC | HOP-18 NSCLC | DMS 114 small cell lung | UO-31 renal | XF 498 CNS | SNB-78 CNS | RXF-631 renal | SK-MEL-5 melanoma | OVCAR-3 ovarian | LXFL 529 NSCLC | SK-MEL-2 melanoma | LOX IMVI melanoma | SNB-19 CNS | UACC-62 melanoma | U251 CNS | SF-539 CNS | DMS 273 small cell lung | NCI-H460 lung | RXF 393 renal | HCC-2998 colon | MALME-3M melanoma | A549 NSCLC | SK-MEL-28 melanoma | MOLT-4 leukemia | ACHN renal | OVCAR-8 ovarian | 786-0 renal | SNB-75 CNS | SF-268 CNS | NCI-H226 lung | RPMI-8226 leukemia | A498 renal | NCI-H23 lung | KM12 colon | EKVX NSCLC | TK-10 renal | M19-MEL melanoma | M14 melanoma | SW-620 colon | DLD-1 colon | UACC-257 melanoma | HCT-116 colon | HCT-15 colon | HOP-92 NSCLC | IGROV1 ovarian | COLO 205 colon | KM20L2 colon | HL-60(TB) leukemia | K-562 leukemia | HT29 colon | OVCAR-5 ovarian
32.8 µM: NCI-H522 lung

N#Cc1cc([N+](=O)[O-])ccc1NC(=O)C(=O)C(C(=O)/C=C/c1ccccc1)C1OC(=O)c2ccccc21 (stereo unspecified)
> 100 µM: SN12C renal | CAKI-1 renal | OVCAR-4 ovarian | SF-295 CNS | HOP-62 NSCLC | HOP-18 NSCLC | DMS 114 small cell lung | UO-31 renal | XF 498 CNS | SNB-78 CNS | RXF-631 renal | SK-MEL-5 melanoma | OVCAR-3 ovarian | LXFL 529 NSCLC | LOX IMVI melanoma | SNB-19 CNS | UACC-62 melanoma | SK-OV-3 ovarian | U251 CNS | SR leukemia | SF-539 CNS | NCI-H460 lung | RXF 393 renal | HCC-2998 colon | MALME-3M melanoma | A549 NSCLC | SK-MEL-28 melanoma | ACHN renal | OVCAR-8 ovarian | 786-0 renal | SNB-75 CNS | SF-268 CNS | NCI-H226 lung | A498 renal | CCRF-CEM leukemia | NCI-H23 lung | NCI-H522 lung | KM12 colon | EKVX NSCLC | TK-10 renal | M19-MEL melanoma | M14 melanoma | SW-620 colon | DLD-1 colon | UACC-257 melanoma | HCT-116 colon | HCT-15 colon | HOP-92 NSCLC | IGROV1 ovarian | COLO 205 colon | KM20L2 colon | HL-60(TB) leukemia | K-562 leukemia | HT29 colon | OVCAR-5 ovarian

— PubChem BioAssay (NCI)
